{"source": "BigSolDB 2.1"}
{"smiles": "CC[n+]1ccccc1.F[P-](F)(F)(F)(F)F", "values": [{"measurement": "solubility (mole fraction)", "setting": "in ethanol, 278.15 K", "value": "8.4e-05"}, {"measurement": "solubility (mole fraction)", "setting": "in ethanol, 283.15 K", "value": 0.000121}, {"measurement": "solubility (mole fraction)", "setting": "in ethanol, 288.15 K", "value": 0.000171}, {"measurement": "solubility (mole fraction)", "setting": "in ethanol, 293.15 K", "value": 0.000224}, {"measurement": "solubility (mole fraction)", "setting": "in ethanol, 298.15 K", "value": 0.000324}, {"measurement": "solubility (mole fraction)", "setting": "in ethanol, 303.15 K", "value": 0.000561}, {"measurement": "solubility (mole fraction)", "setting": "in ethanol, 308.15 K", "value": 0.00061}, {"measurement": "solubility (mole fraction)", "setting": "in ethanol, 313.15 K", "value": 0.000718}, {"measurement": "solubility (mole fraction)", "setting": "in ethanol, 318.15 K", "value": 0.000976}, {"measurement": "solubility (mole fraction)", "setting": "in ethanol, 323.15 K", "value": 0.0015}, {"measurement": "solubility (mole fraction)", "setting": "in ethanol, 328.15 K", "value": 0.00189}, {"measurement": "solubility (mole fraction)", "setting": "in ethanol, 333.15 K", "value": 0.00252}, {"measurement": "solubility (mole fraction)", "setting": "in ethanol, 338.15 K", "value": 0.00308}, {"measurement": "solubility (mole fraction)", "setting": "in ethanol, 343.15 K", "value": 0.00389}, {"measurement": "solubility (mole fraction)", "setting": "in water, 278.15 K", "value": 0.000474}, {"measurement": "solubility (mole fraction)", "setting": "in water, 283.15 K", "value": 0.000581}, {"measurement": "solubility (mole fraction)", "setting": "in water, 288.15 K", "value": 0.000711}, {"measurement": "solubility (mole fraction)", "setting": "in water, 293.15 K", "value": 0.000857}, {"measurement": "solubility (mole fraction)", "setting": "in water, 298.15 K", "value": 0.00105}, {"measurement": "solubility (mole fraction)", "setting": "in water, 303.15 K", "value": 0.0013}, {"measurement": "solubility (mole fraction)", "setting": "in water, 308.15 K", "value": 0.00159}, {"measurement": "solubility (mole fraction)", "setting": "in water, 313.15 K", "value": 0.00186}, {"measurement": "solubility (mole fraction)", "setting": "in water, 318.15 K", "value": 0.00216}, {"measurement": "solubility (mole fraction)", "setting": "in water, 323.15 K", "value": 0.0026}, {"measurement": "solubility (mole fraction)", "setting": "in water, 328.15 K", "value": 0.00325}, {"measurement": "solubility (mole fraction)", "setting": "in water, 333.15 K", "value": 0.00387}, {"measurement": "solubility (mole fraction)", "setting": "in water, 338.15 K", "value": 0.00454}, {"measurement": "solubility (mole fraction)", "setting": "in water, 343.15 K", "value": 0.00535}]}
